# Measurements reported in PubChem BioAssay (NCI).
#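 Briefly, cells in 96-well plates were exposed to five compound concentrations for 48 h, and endpoints were estimated by linear interpolation. Here, GI50 denotes the concentration required for 50% inhibition of growth. Definition used: TGI = concentration required for complete inhibition of growth.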
# Experiments:
# Assay in all cases: NCI tumour cell line growth inhibition, 48 h
# MALME-3M melanoma = test system: MALME-3M melanoma
# HOP-62 NSCLC = test system: HOP-62 NSCLC
# OVCAR-5 ovarian = test system: OVCAR-5 ovarian
# M14 melanoma = test system: M14 melanoma
# RXF 393 renal = test system: RXF 393 renal
# U251 CNS = test system: U251 CNS
# 786-0 renal = test system: 786-0 renal
# SN12C renal = test system: SN12C renal
# SK-MEL-2 melanoma = test system: SK-MEL-2 melanoma
# MCF7 breast = test system: MCF7 breast
# IGROV1 ovarian = test system: IGROV1 ovarian
# HCC-2998 colon = test system: HCC-2998 colon
# HOP-92 NSCLC = test system: HOP-92 NSCLC
# DU-145 prostate = test system: DU-145 prostate
# CCRF-CEM leukemia = test system: CCRF-CEM leukemia
# COLO 205 colon = test system: COLO 205 colon
# SK-MEL-28 melanoma = test system: SK-MEL-28 melanoma
# EKVX NSCLC = test system: EKVX NSCLC
# SW-620 colon = test system: SW-620 colon
# SNB-19 CNS = test system: SNB-19 CNS
# SF-268 CNS = test system: SF-268 CNS
# KM12 colon = test system: KM12 colon
# HL-60(TB) leukemia = test system: HL-60(TB) leukemia
# SNB-75 CNS = test system: SNB-75 CNS
# HT29 colon = test system: HT29 colon
# ACHN renal = test system: ACHN renal
# NCI-H522 lung = test system: NCI-H522 lung
# HCT-15 colon = test system: HCT-15 colon
# MDA-MB-435 = test system: MDA-MB-435
# SK-OV-3 ovarian = test system: SK-OV-3 ovarian
# SR leukemia = test system: SR leukemia
# A498 renal = test system: A498 renal
# PC-3 prostate = test system: PC-3 prostate
# SK-MEL-5 melanoma = test system: SK-MEL-5 melanoma
# MOLT-4 leukemia = test system: MOLT-4 leukemia
# T-47D breast = test system: T-47D breast
# OVCAR-8 ovarian = test system: OVCAR-8 ovarian
# UACC-257 melanoma = test system: UACC-257 melanoma
# LOX IMVI melanoma = test system: LOX IMVI melanoma
# MDA-MB-231 breast = test system: MDA-MB-231 breast
# SF-539 CNS = test system: SF-539 CNS
# OVCAR-4 ovarian = test system: OVCAR-4 ovarian
# SF-295 CNS = test system: SF-295 CNS
# A549 NSCLC = test system: A549 NSCLC
# UACC-62 melanoma = test system: UACC-62 melanoma
# K-562 leukemia = test system: K-562 leukemia
# NCI-H23 lung = test system: NCI-H23 lung
# CAKI-1 renal = test system: CAKI-1 renal
# HCT-116 colon = test system: HCT-116 colon
# NCI-H460 lung = test system: NCI-H460 lung
# OVCAR-3 ovarian = test system: OVCAR-3 ovarian
# NCI/ADR-RES ovarian = test system: NCI/ADR-RES ovarian
# RPMI-8226 leukemia = test system: RPMI-8226 leukemia
# NCI-H226 lung = test system: NCI-H226 lung
# UO-31 renal = test system: UO-31 renal
# TK-10 renal = test system: TK-10 renal
structure (smiles),measurement,setting,value
COc1cc(C2CC(c3ccc(SC)cc3)=NN2C(C)=O)cc(OC)c1OC (configuration not stated),GI50,MALME-3M melanoma,53.6 µM
same,TGI,MALME-3M melanoma,> 100 µM
same,GI50,HOP-62 NSCLC,16.1 µM
same,TGI,HOP-62 NSCLC,66.3 µM
same,GI50,OVCAR-5 ovarian,44.5 µM
same,TGI,OVCAR-5 ovarian,> 100 µM
same,GI50,M14 melanoma,3.91 µM
same,TGI,M14 melanoma,38.4 µM
same,GI50,RXF 393 renal,13.2 µM
same,TGI,RXF 393 renal,43.6 µM
same,GI50,U251 CNS,7.27 µM
same,TGI,U251 CNS,> 100 µM
same,GI50,786-0 renal,14.1 µM
same,TGI,786-0 renal,70.4 µM
same,GI50,SN12C renal,28.5 µM
same,TGI,SN12C renal,> 100 µM
same,GI50,SK-MEL-2 melanoma,10.5 µM
same,TGI,SK-MEL-2 melanoma,60.3 µM
same,GI50,MCF7 breast,4.47 µM
same,TGI,MCF7 breast,77.5 µM
same,GI50,IGROV1 ovarian,6.38 µM
same,TGI,IGROV1 ovarian,> 100 µM
same,GI50,HCC-2998 colon,12.1 µM
same,TGI,HCC-2998 colon,38.7 µM
same,GI50,HOP-92 NSCLC,16 µM
same,TGI,HOP-92 NSCLC,97.1 µM
same,GI50,DU-145 prostate,16.5 µM
same,TGI,DU-145 prostate,50.6 µM
same,GI50,CCRF-CEM leukemia,9.49 µM
same,TGI,CCRF-CEM leukemia,> 100 µM
same,GI50,COLO 205 colon,5.38 µM
same,TGI,COLO 205 colon,21.6 µM
same,GI50,SK-MEL-28 melanoma,16.6 µM
same,TGI,SK-MEL-28 melanoma,> 100 µM
same,GI50,EKVX NSCLC,17.7 µM
same,TGI,EKVX NSCLC,> 100 µM
same,GI50,SW-620 colon,4.49 µM
same,TGI,SW-620 colon,> 100 µM
same,GI50,SNB-19 CNS,7.04 µM
same,TGI,SNB-19 CNS,> 100 µM
same,GI50,SF-268 CNS,11.9 µM
same,TGI,SF-268 CNS,> 100 µM
same,GI50,KM12 colon,3.89 µM
same,TGI,KM12 colon,44.9 µM
same,GI50,HL-60(TB) leukemia,2680 nM
same,TGI,HL-60(TB) leukemia,12.1 µM
same,GI50,SNB-75 CNS,4.99 µM
same,TGI,SNB-75 CNS,50.9 µM
same,GI50,HT29 colon,4.2 µM
same,TGI,HT29 colon,> 100 µM
same,GI50,ACHN renal,18.2 µM
same,TGI,ACHN renal,> 100 µM
same,GI50,NCI-H522 lung,23.8 µM
same,TGI,NCI-H522 lung,> 100 µM
same,GI50,HCT-15 colon,5.09 µM
same,TGI,HCT-15 colon,> 100 µM
same,GI50,MDA-MB-435,1950 nM
same,TGI,MDA-MB-435,5.55 µM
same,GI50,SK-OV-3 ovarian,17.1 µM
same,TGI,SK-OV-3 ovarian,95.9 µM
same,GI50,SR leukemia,1940 nM
same,TGI,SR leukemia,14.2 µM
same,GI50,A498 renal,12.6 µM
same,TGI,A498 renal,49.3 µM
same,GI50,PC-3 prostate,16.2 µM
same,TGI,PC-3 prostate,> 100 µM
same,GI50,SK-MEL-5 melanoma,4.04 µM
same,TGI,SK-MEL-5 melanoma,16.1 µM
same,GI50,MOLT-4 leukemia,5.2 µM
same,TGI,MOLT-4 leukemia,> 100 µM
same,GI50,T-47D breast,8.9 µM
same,TGI,T-47D breast,> 100 µM
same,GI50,OVCAR-8 ovarian,25.2 µM
same,TGI,OVCAR-8 ovarian,> 100 µM
same,GI50,UACC-257 melanoma,42 µM
same,TGI,UACC-257 melanoma,> 100 µM
same,GI50,LOX IMVI melanoma,7.1 µM
same,TGI,LOX IMVI melanoma,> 100 µM
same,GI50,MDA-MB-231 breast,20.1 µM
same,TGI,MDA-MB-231 breast,> 100 µM
same,GI50,SF-539 CNS,10 µM
same,TGI,SF-539 CNS,38 µM
same,GI50,OVCAR-4 ovarian,34.2 µM
same,TGI,OVCAR-4 ovarian,> 100 µM
same,GI50,SF-295 CNS,1230 nM
same,TGI,SF-295 CNS,4.64 µM
same,GI50,A549 NSCLC,9.63 µM
same,TGI,A549 NSCLC,> 100 µM
same,GI50,UACC-62 melanoma,9.86 µM
same,TGI,UACC-62 melanoma,> 100 µM
same,GI50,K-562 leukemia,3.47 µM
same,TGI,K-562 leukemia,20.8 µM
same,GI50,NCI-H23 lung,24.3 µM
same,TGI,NCI-H23 lung,> 100 µM
same,GI50,CAKI-1 renal,7.11 µM
same,TGI,CAKI-1 renal,70 µM
same,GI50,HCT-116 colon,4.28 µM
same,TGI,HCT-116 colon,21 µM
same,GI50,NCI-H460 lung,4.14 µM
same,TGI,NCI-H460 lung,16.9 µM
same,GI50,OVCAR-3 ovarian,3.76 µM
same,TGI,OVCAR-3 ovarian,22.8 µM
same,GI50,NCI/ADR-RES ovarian,7.56 µM
same,TGI,NCI/ADR-RES ovarian,> 100 µM
same,GI50,RPMI-8226 leukemia,6.51 µM
same,TGI,RPMI-8226 leukemia,96 µM
same,GI50,NCI-H226 lung,19.8 µM
same,TGI,NCI-H226 lung,45.6 µM
same,GI50,UO-31 renal,15.9 µM
same,TGI,UO-31 renal,77.4 µM
same,GI50,TK-10 renal,22.9 µM
same,TGI,TK-10 renal,78.1 µM
